{"source": "patent EP1464336A1", "about": "“Use of tryprostatin A for the reversal of cancer drug resistance” (Humboldt-Universität zu Berlin, priority 2003, dated 2004)", "key": {"[1]": {"test_system": "drug-sensitive and drug-resistant gastric and breast cancer cell lines", "assay": "Cytotoxicity of the MDR modulators alone (SRB proliferation assay)", "type": "cell-based, human", "conditions": "for growth inhibitory effect / cytotoxic side effects: 10 µM TPS-A alone, any of the drug-sensitive or drug-resistant cancer cell lines tested", "description": "(§1) Modulation of chemoresistance was tested using a proliferation assay based on sulforhodamine B (SRB), a protein-binding reagent (Skehan P et al., J Natl Cancer Inst 1990;82:1107-12), as described in Lage H et al., Int J Hyperthermia 2000;16:291-303; Lage H et al., FEBS Lett 2001;503:179-84; Lage H et al., FEBS Lett 2001;494:54-9. In each experiment, 350 cells per well were seeded in the presence or absence of TPS-A in 96-well plates in complete medium and allowed to attach overnight. Mitoxantrone or daunorubicin were added in a dilution series in triplicate wells. After 5 days, when unselected wells were still subconfluent, incubation was terminated by replacing the medium with 10 % trichloroacetic acid, followed by incubation at 4 °C for 1 h. After samples were washed 5 times with water and air-dried, 50 µl 0.4 % SRB (Sigma, St. Louis, MO) in 1 % acetic acid was added and samples were incubated for 10 min at room temperature. Unbound dye was eliminated by washing the plates 5 times with 1 % acetic acid. After air-drying and re-solubilisation of the protein-bound dye in 10 mM Tris-HCl (pH 8.0), absorbance was quantified at 562.5 nm. To determine the IC50-value, the absorbance difference of control cells without drug was set to be 100 %. Linear regression of data was done for the linear part of the curve, and IC50-values were calculated from multiple, at least three independent experiments for each cell line.\n(§2) The cytotoxicity of the MDR modulators TPS-A and GF120918 on drug-sensitive and drug-resistant gastric and breast cancer cell lines was initially assessed."}, "[2]": {"test_system": "MCF-7 breast cancer-derived cell variants", "assay": "Cytotoxicity of the MDR modulator alone (SRB proliferation assay)", "type": "cell-based, human", "description": "as §1, with “Unbound dye was eliminated by washing the plates 5 times with 1 % acetic acid.” left out, “To determine the IC50-value, the absorbance difference of control cells without drug was set to be 100 %.” left out\nas §2"}, "[3]": {"test_system": "gastric and breast carcinoma cell variants", "assay": "Modulation of chemoresistance to mitoxantrone or daunorubicin (SRB proliferation assay, IC50/DMF)", "type": "cell-based, human", "description": "as §1\nThe cellular sensitivity to mitoxantrone and daunorubicin was assessed by determining the IC50 values without or with increasing concentrations of TPS-A or GF120918 as a positive control in the different cancer cell variants. Table 1 presents the data of TPS-A reversal of mitoxantrone and daunorubicin resistance in different gastric and breast carcinoma cell variants, respectively. […] In each case, the equation DMF=(IC50 (-CS))/(IC50 (+CS)) [formula] was used to calculate the dose modifying factor (DMF), comparing the IC50 values in the presence (+CS) or absence (-CS) of the corresponding chemosensitizer (CS) TPS-A or GF120918."}, "[4]": {"test_system": "drug-sensitive, and drug-resistant gastric carcinoma and breast cancer cells", "assay": "Time course of mitoxantrone accumulation (flow cytometry)", "type": "cell-based, human", "conditions": "10 µM mitoxantrone and TPS-A for increasing time periods (Fig 5A, 5B)", "description": "Cellular mitoxantrone accumulation was determined according to the procedure described in Lage H et al., FEBS Lett 2001;503:179-84. Briefly, 4 x 10^5 cells were seeded out in 6-well plates 78 hours prior to the experiment. Incubation with mitoxantrone (0, 1,5 and 10 µg/ml) was performed for 60 minutes at 37°C and 70-80 % cellular confluence. For kinetics of intracellular enrichment of mitoxantrone, cells were exposed to 10 µg/ml mitoxantrone for 0, 5, 10 and 60 min. Cells were washed with ice-cold PBS, trypsinized and resuspended in 4 °C PBS at a concentration of 4 x 10^5 cells/ml. Intracellular fluorescence of mitoxantrone was determined by flow cytometry (Becton-Dickinson, San Jose, CA). The cells were excited at 480 nm and emission was measured at 630 nm. A minimum of 10^4 cells was analyzed for each sample. All assays were performed at least in three independent experiments, each time with triplicate wells.\nTo analyze the time course of MDR modulating effects of TPS-A, drug-sensitive, and drug-resistant gastric carcinoma and breast cancer cells were incubated with 10 µM mitoxantrone and TPS-A for increasing time periods."}, "[5]": {"test_system": "BCRP overexpressing cells (EPG85-257RNOV)", "assay": "Annexin assay: FITC-Annexin V binding, exposure of endogenous PS (flow cytometry)", "type": "cell-based, human", "conditions": "preincubation with 5 µM Tryprostatin A for 30 min at 37°C (Fig. 9, 10)", "description": "(§3) To measure exposure of endogenous PS on the cell surface, cells were incubated on ice for 10 minutes in the dark with 9 nM FITC-Annexin V in binding buffer. Two minutes prior to the end of the incubation, propidium iodide (final 1.9 µM) was added. Cells were then washed three times, detached from the dishes through pipetting, and suspended in binding buffer. Measurement was performed with a FACSCalibur flow cytometer (Becton Dickinson, St. Louis, MO) 5 minutes after the end of incubation. Regions were set to exclude subcellular particles, and only single cells were counted (10 000 cells / sample). A further gate excluded damaged cells with elevated propidium iodide staining. Data were analyzed by Becton Dickinson CellQuest software."}, "[6]": {"test_system": "control cells (EPG85-257P)", "assay": "Annexin assay: FITC-Annexin V binding, exposure of endogenous PS (flow cytometry)", "type": "cell-based, human", "conditions": "treatment with Tryprostatin A (data not shown)", "description": "as §3"}, "[7]": {"test_system": "cell cycle progression at the G2/M phase", "conditions": "literature (Cui CB et al.; Usui T et al.); cited from earlier work"}}, "note": "Entries after “also recorded” stand apart in the source; their conditions may differ.", "data": [{"smiles": "COc1ccc2c(C[C@@H]3NC(=O)[C@@H]4CCCN4C3=O)c(CC=C(C)C)[nH]c2c1", "note": "[TPS-A, tryprostatin A]", "values": [{"measurement": "growth inhibitory effect / cytotoxic side effects", "setting": "[1]", "result": "no growth inhibitory effect"}, {"measurement": "growth inhibitory effect / cytotoxic side effects", "setting": "[1]; listed as tryprostatin A", "result": "without showing any cytotoxic side effects"}, {"measurement": "cytotoxicity", "setting": "[1]; TPS-A concentration range 1-100 µM", "result": "does not show any cytotoxicity"}, {"measurement": "cross-resistance to the MDR modulator", "setting": "[1]; multidrug-resistant tumor cell lines", "result": "No evidence of cross-resistance"}, {"measurement": "effect on the cell proliferation", "setting": "[2]; 50 µM TPS-A alone in the cell culture medium", "result": "without any effect on the cell proliferation; also recorded: did not show any cytotoxic or growth-inhibiting effects"}, {"measurement": "concentration necessary to obtain a level of drug sensitivity beyond that found for 1 µM GF120918", "setting": "[2]; MCF-7-derived breast cancer model system", "result": 50, "unit": "µM"}, {"measurement": "sensitization to treatment with mitoxantrone", "setting": "[3]; TPS-A, BCRP-expressing gastric and breast cancer cells (Table 1, Figure 2A)", "result": "dose-depending sensitization"}, {"measurement": "effect on sensitivity to daunorubicin", "setting": "[3]; increasing concentrations of TPS-A, drug-sensitive, P-gp- or BCRP-expressing carcinoma cells (Table 1, Figure 2B)", "result": "No significant effect"}, {"measurement": "chemosensitizing effects over time (mitoxantrone accumulation)", "setting": "[4]", "result": "time-dependent manner"}, {"measurement": "level of Annexin V binding", "setting": "[5]", "result": "reduced the level of Annexin V binding to that of control cells; also recorded: reduced to the level found for control cells"}, {"measurement": "Annexin V binding", "setting": "[6]", "result": "not affected"}, {"measurement": "final concentration arresting cell cycle progression at the G2/M phase", "setting": "[7]", "result": 125, "unit": "µM"}]}]}
